The values that follow come from patent US20250270209A1 (INTERLINE THERAPEUTICS, INC., priority 2022, published 2025).

In one experiment the target is LRRK2 wild type enzyme (Homo sapiens, UniProt Q5S007). In words: Biochemical Assay: LRRK2 TR-FRET (LanthaScreen) kinase assay with LRRKtide substrate. To be noted: LRRK2 Inhibition, Table 8. In a few lines:
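TR-FRET detection (Tb-labelled phospho-LRRKtide antibody, EDTA stop, 30 min) followed a 120 min, 23 °C reaction of 3 nM wild-type human LRRK2 with LRRKtide (400 nM) and ATP (25 μM) in Tris pH 8.0. Compounds: 11-point 3-fold series from 10 μM, 15 min enzyme preincubation.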

The target of experiment [1] is T1, wild type LRRK2 overexpressed in recombinant HEK-293T cells (Homo sapiens, UniProt Q5S007).
T1 construct: host or cells: HEK293T (transient transfection with pCMV-LRRK2 WT plasmid)
The experiment is described as follows: pS935 LRRK2 Cell Assay (HTRF, phospho-LRRK2 Ser935). It is filed as cell-based. To be noted: LRRK2 Inhibition, Table 8, 2 hours compound incubation. In a few lines:
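Phospho-Ser935 LRRK2 measured by two-antibody HTRF (Eu-cryptate donor, d2 acceptor; 665/615 nm ratio) after overnight detection at 23° C. Before lysis, transiently LRRK2-transfected HEK-293T cells were exposed 2 h at 37° C to a 9-point, 3-fold series from 10 μM, with DMSO at 0.2%.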

LRRK2 wild type enzyme, sequence (Q5S007 whole entry): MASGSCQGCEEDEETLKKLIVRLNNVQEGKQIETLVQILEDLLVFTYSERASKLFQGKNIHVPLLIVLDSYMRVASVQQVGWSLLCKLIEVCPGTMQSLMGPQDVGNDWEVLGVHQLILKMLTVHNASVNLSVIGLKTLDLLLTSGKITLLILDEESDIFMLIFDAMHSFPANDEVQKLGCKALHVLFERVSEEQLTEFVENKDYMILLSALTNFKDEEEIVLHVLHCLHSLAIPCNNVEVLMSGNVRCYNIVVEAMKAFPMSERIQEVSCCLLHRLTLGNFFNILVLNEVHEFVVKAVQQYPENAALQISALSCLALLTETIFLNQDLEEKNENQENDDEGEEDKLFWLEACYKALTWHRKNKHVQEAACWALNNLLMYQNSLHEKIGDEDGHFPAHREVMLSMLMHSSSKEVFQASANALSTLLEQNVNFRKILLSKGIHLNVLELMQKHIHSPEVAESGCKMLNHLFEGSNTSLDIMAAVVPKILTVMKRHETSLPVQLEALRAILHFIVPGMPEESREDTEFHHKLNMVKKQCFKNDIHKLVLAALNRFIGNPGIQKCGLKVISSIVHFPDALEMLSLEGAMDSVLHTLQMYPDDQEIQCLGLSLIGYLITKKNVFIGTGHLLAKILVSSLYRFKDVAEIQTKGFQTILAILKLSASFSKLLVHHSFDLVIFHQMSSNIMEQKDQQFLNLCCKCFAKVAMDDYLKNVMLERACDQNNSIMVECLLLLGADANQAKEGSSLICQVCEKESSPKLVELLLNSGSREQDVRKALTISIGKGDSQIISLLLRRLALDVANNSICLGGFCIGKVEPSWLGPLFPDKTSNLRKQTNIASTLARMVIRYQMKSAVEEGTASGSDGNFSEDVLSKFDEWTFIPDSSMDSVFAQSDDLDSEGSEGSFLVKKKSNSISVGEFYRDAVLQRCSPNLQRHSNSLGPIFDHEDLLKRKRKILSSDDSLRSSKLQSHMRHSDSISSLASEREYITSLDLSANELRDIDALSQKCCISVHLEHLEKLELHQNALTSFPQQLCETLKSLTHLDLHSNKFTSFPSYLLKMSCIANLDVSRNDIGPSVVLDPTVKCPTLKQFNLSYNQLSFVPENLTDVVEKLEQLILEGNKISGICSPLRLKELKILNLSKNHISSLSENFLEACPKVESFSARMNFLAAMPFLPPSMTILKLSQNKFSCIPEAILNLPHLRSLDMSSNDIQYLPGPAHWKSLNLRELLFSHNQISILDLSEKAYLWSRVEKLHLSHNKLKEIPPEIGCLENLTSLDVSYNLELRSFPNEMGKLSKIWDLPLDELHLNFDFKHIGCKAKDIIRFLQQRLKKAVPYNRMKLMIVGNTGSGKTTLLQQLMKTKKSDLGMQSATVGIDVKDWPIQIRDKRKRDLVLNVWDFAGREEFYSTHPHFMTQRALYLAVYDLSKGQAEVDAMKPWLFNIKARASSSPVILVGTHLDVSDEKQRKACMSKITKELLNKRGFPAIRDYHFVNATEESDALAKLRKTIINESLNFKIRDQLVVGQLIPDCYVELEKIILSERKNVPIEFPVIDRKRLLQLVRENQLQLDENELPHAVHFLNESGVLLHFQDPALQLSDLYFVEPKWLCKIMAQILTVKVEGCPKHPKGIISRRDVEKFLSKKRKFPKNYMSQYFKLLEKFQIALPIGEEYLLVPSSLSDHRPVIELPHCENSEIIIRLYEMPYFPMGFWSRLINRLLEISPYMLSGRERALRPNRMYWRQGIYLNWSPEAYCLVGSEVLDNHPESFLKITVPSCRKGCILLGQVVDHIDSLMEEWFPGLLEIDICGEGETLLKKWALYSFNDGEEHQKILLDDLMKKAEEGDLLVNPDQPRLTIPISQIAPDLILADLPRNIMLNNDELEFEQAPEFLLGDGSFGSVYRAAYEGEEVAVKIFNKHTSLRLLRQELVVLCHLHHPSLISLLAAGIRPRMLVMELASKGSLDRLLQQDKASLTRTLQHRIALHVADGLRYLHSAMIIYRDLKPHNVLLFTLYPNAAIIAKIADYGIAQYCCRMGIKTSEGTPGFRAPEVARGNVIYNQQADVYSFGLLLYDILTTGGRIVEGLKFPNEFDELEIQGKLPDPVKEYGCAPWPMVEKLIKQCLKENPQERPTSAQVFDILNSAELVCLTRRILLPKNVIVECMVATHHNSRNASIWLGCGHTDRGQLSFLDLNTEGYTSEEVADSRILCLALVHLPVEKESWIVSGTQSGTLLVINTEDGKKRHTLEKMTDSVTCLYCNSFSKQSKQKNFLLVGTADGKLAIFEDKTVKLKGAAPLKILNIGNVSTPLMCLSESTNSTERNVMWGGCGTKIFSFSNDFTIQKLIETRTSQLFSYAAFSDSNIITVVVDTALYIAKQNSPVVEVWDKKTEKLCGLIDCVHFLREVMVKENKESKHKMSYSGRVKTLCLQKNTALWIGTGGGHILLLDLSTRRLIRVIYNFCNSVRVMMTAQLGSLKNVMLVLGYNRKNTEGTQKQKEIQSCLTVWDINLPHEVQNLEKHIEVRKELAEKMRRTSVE
T1 sequence (Q5S007 whole entry): as above

`C[C@@H]1C[C@H](n2c(CC(=O)NCC3CCC3)nc3cnc4ccc(C#N)cc4c32)CCO1` [Compound 89, 2-{8-cyano-1-[(2R,4R)-2-methyloxan-4-yl]-1H-imidazo[4,5-c]quinolin-2-yl}-N-(cyclobutylmethyl)acetamide]: the half-inhibitory concentration (IC50) was determined as 0.589 nM against LRRK2 wild type enzyme and 34 nM in experiment [1].

Consider `C[C@@H]1C[C@H](n2c(CC(=O)NC3CCOCC3)nc3cnc4ccc(C#N)cc4c32)CCO1` [Compound 4, 2-{8-cyano-1-[(2R,4R)-2-methyloxan-4-yl]-1H-imidazo[4,5-c]quinolin-2-yl}-N-(oxan-4-yl)acetamide], for which the half-inhibitory concentration (IC50) on LRRK2 wild type enzyme is 0.551 nM; in experiment [1] it was 57.5 nM.

In the case of `C[C@@H]1C[C@H](n2c(CC(=O)NCCCO)nc3cnc4ccc(C#N)cc4c32)CCO1` [Compound 181, 2-{8-cyano-1-[(2R,4R)-2-methyloxan-4-yl]-1H-imidazo[4,5-c]quinolin-2-yl}-N-(3-hydroxypropyl)acetamide], the half-inhibitory concentration (IC50) stood at 0.578 nM on LRRK2 wild type enzyme and 376 nM in experiment [1].

For `COc1nn(C)cc1NC(=O)Cc1nc2cnc3ccc(C#N)cc3c2n1[C@@H]1CCO[C@H](C)C1` [Compound 229, N-(3-methoxy-1-methyl-4-pyrazolyl){3-[(2R,4R)-2-methyltetrahydro-2H-pyran-4-yl]-12-cyano-3,5,8-triazatricyclo[7.4.0.0^2,6]trideca-1,4,6,8,10,12-hexaen-4-yl}acetamide], the IC50 is 0.316 nM against LRRK2 wild type enzyme and 6.62 nM in experiment [1].

Regarding `C[C@@H]1C[C@H](n2c(CC(=O)N[C@H](C)C3CC3)nc3cnc4ccc(C#N)cc4c32)CCO1` [Compound 7, 2-{8-cyano-1-[(2R,4R)-2-methyloxan-4-yl]-1H-imidazo[4,5-c]quinolin-2-yl}-N-[(1R)-1-cyclopropylethyl]acetamide], the IC50 against LRRK2 wild type enzyme came out at 0.794 nM; in experiment [1], 47.2 nM.

Turning to `C[C@@H]1C[C@H](n2c(CC(=O)NC3(C(F)(F)F)CC3)nc3cnc4ccc(C#N)cc4c32)CCO1` [Compound 287, N-1-(trifluoromethyl)cyclopropyl{3-[(2R,4R)-2-methyltetrahydro-2H-pyran-4-yl]-12-cyano-3,5,8-triazatricyclo[7.4.0.0^2,6]trideca-1,4,6,8,10,12-hexaen-4-yl}acetamide], the IC50 against LRRK2 wild type enzyme was determined as 1.61 nM; in experiment [1], 118 nM.

As to `C[C@@H]1C[C@H](n2c(CC(=O)N(C)C)nc3cnc4ccc(C#N)cc4c32)CCO1` [Compound 9, 2-{8-cyano-1-[(2R,4R)-2-methyloxan-4-yl]-1H-imidazo[4,5-c]quinolin-2-yl}-N,N-dimethylacetamide], the IC50 at LRRK2 wild type enzyme turned out to be 6.28 nM; in experiment [1] it was 605 nM.

With `C[C@@H]1C[C@H](n2c(CC(=O)N[C@H]3CCCc4cccnc43)nc3cnc4ccc(C#N)cc4c32)CCO1` [Compound 358, N-[(S)-5,6,7,8-tetrahydro-8-quinolyl]{3-[(2R,4R)-2-methyltetrahydro-2H-pyran-4-yl]-12-cyano-3,5,8-triazatricyclo[7.4.0.0^2,6]trideca-1(9),2(6),4,7,10,12-hexaen-4-yl}acetamide], the figures for the IC50 (on LRRK2 wild type enzyme; in experiment [1]) were 0.602 nM and 24.5 nM, respectively.

With `C[C@@H]1C[C@H](n2c(CC(=O)Nc3ccno3)nc3cnc4ccc(C#N)cc4c32)CCO1` [Compound 165, 2-{8-cyano-1-[(2R,4R)-2-methyloxan-4-yl]-1H-imidazo[4,5-c]quinolin-2-yl}-N-(1,2-oxazol-5-yl)acetamide], the half-inhibitory concentration (IC50) was 0.789 nM against LRRK2 wild type enzyme and 10.6 nM in experiment [1].

Turning to `COc1ncc(NC(=O)Cc2nc3cnc4ccc(C#N)cc4c3n2[C@@H]2CCO[C@H](C)C2)c(C2CC2)n1` [Compound 278, N-(4-cyclopropyl-2-methoxy-5-pyrimidinyl){3-[(2R,4R)-2-methyltetrahydro-2H-pyran-4-yl]-12-cyano-3,5,8-triazatricyclo[7.4.0.0^2,6]trideca-1,4,6,8,10,12-hexaen-4-yl}acetamide], the figures for the half-maximal inhibitory concentration (IC50) (against LRRK2 wild type enzyme; in experiment [1]) were 0.418 nM and 2 nM, respectively.

Consider `C[C@@H]1C[C@H](n2c(CC(=O)Nc3ccc(OC(F)F)nc3)nc3cnc4ccc(C#N)cc4c32)CCO1` [Compound 293, N-(6-difluoromethoxy-3-pyridyl){3-[(2R,4R)-2-methyltetrahydro-2H-pyran-4-yl]-12-cyano-3,5,8-triazatricyclo[7.4.0.0^2,6]trideca-1,4,6,8,10,12-hexaen-4-yl}acetamide], for which the IC50 worked out at 0.514 nM on LRRK2 wild type enzyme and 9.81 nM in experiment [1].

Turning to `COCC1(CNC(=O)Cc2nc3cnc4ccc(C#N)cc4c3n2[C@@H]2CCO[C@H](C)C2)CC1` [Compound 267, N-[1-(methoxymethyl)cyclopropyl]methyl{3-[(2R,4R)-2-methyltetrahydro-2H-pyran-4-yl]-12-cyano-3,5,8-triazatricyclo[7.4.0.0^2,6]trideca-1,4,6,8,10,12-hexaen-4-yl}acetamide], the IC50 against LRRK2 wild type enzyme amounted to 0.419 nM; in experiment [1] it was 7.51 nM.

On to `C[C@@H]1C[C@H](n2c([C@@H]3CCCN(C(=O)C4CC4)C3)nc3cnc4ccc(C#N)cc4c32)CCO1` [Compound 28, 2-[(3R)-1-cyclopropanecarbonylpiperidin-3-yl]-1-[(2R,4R)-2-methyloxan-4-yl]-1H-imidazo[4,5-c]quinoline-8-carbonitrile], for which the IC50 against LRRK2 wild type enzyme was 12.3 nM; in experiment [1] it was 773 nM.

With `C[C@@H]1C[C@H](n2c(CC(=O)NC3CCc4cccnc43)nc3cnc4ccc(C#N)cc4c32)CCO1` (stereo partly drawn) [Compound 151, 2-{8-cyano-1-[(2R,4R)-2-methyloxan-4-yl]-1H-imidazo[4,5-c]quinolin-2-yl}-N-{5H,6H,7H-cyclopenta[b]pyridin-7-yl}acetamide], the half-inhibitory concentration (IC50) at LRRK2 wild type enzyme was determined as 0.55 nM; in experiment [1], 23.3 nM.

In the case of `C[C@@H]1C[C@H](n2c(CC(=O)N(C)CC(F)(F)F)nc3cnc4ccc(C#N)cc4c32)CCO1` [Compound 81, 2-{8-cyano-1-[(2R,4R)-2-methyloxan-4-yl]-1H-imidazo[4,5-c]quinolin-2-yl}-N-methyl-N-(2,2,2-trifluoroethyl)acetamide], the values for the IC50 (against LRRK2 wild type enzyme; in experiment [1]) were 10.5 nM and 728 nM, respectively.

With `C[C@@H]1C[C@H](n2c(C(F)(F)C(=O)NCC3CC3)nc3cnc4ccc(C#N)cc4c32)CCO1` [Compound 334], the IC50 against LRRK2 wild type enzyme came out at 1.34 nM; in experiment [1], 26.5 nM.

With `C[C@@H]1C[C@H](n2c([C@@H]3CCC(=O)N3)nc3cnc4ccc(C#N)cc4c32)CCO1` [Compound 71, 1-[(2R,4R)-2-methyloxan-4-yl]-2-[(2S)-5-oxopyrrolidin-2-yl]-1H-imidazo[4,5-c]quinoline-8-carbonitrile], the half-maximal inhibitory concentration (IC50) against LRRK2 wild type enzyme stood at 5.49 nM; in experiment [1], 4790 nM.

Take `COc1ncc(NC(=O)Cc2nc3cnc4ccc(C#N)cc4c3n2[C@@H]2CCO[C@H](C)C2)c(C)n1` [Compound 243, N-(2-methoxy-4-methyl-5-pyrimidinyl){3-[(2R,4R)-2-methyltetrahydro-2H-pyran-4-yl]-12-cyano-3,5,8-triazatricyclo[7.4.0.0^2,6]trideca-1(9),2(6),4,7,10,12-hexaen-4-yl}acetamide]: the IC50 against LRRK2 wild type enzyme was found to be 0.565 nM; in experiment [1], 11.5 nM.

For the compound `C[C@@H]1C[C@H](n2c(CC(=O)Nc3cnn(C4CCC4)c3)nc3cnc4ccc(C#N)cc4c32)CCO1` [Compound 305, N-(1-cyclobutyl-4-pyrazolyl){3-[(2R,4R)-2-methyltetrahydro-2H-pyran-4-yl]-12-cyano-3,5,8-triazatricyclo[7.4.0.0^2,6]trideca-1,4,6,8,10,12-hexaen-4-yl}acetamide], the figures for the half-inhibitory concentration (IC50) (against LRRK2 wild type enzyme; in experiment [1]) were 0.633 nM and 12.3 nM, respectively.
